How the values were obtained:
Assay in all cases: IA-DTB cysteine engagement
Format in all cases: binding
[1] = target: T1, HMOX2_C282 (Homo sapiens, UniProt P30519); conditions: 22Rv1 cells, relative to DMSO; for % engagement HMOX2_C282: 20 μM probe, 1 h; for % engagement HMOX2_282: 5 μM probe, 1 h (FIG. 5B)
T1 construct: endogenous in cells; host or cells: 22Rv1
T1 sequence (P30519 1-316): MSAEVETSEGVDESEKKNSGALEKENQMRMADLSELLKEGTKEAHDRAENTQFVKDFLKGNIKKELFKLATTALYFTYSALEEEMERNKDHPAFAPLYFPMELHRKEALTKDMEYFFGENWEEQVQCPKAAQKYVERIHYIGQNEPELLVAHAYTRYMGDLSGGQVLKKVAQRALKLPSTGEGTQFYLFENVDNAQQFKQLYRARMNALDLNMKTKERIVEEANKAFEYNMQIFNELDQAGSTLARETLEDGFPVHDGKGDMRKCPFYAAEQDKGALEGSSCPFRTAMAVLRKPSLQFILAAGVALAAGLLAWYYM
Outline: (§1)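 In-situ probe treatment of cells; lysate 2 mg/mL, IA-DTB 1 h RT; MeOH/CHCl3 precipitation, DTT/iodoacetamide, trypsin; streptavidin enrichment; TMT labeling, high-pH fractionation. Ratio = TMT reporter intensity / mean DMSO channels, median-normalized.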

[2] = target: T2, TM7SF2_C184 (Homo sapiens, UniProt O76062); conditions: 22Rv1 cells, 20 μM probe, 1 h, relative to DMSO
T2 construct: endogenous in cells; host or cells: 22Rv1
T2 sequence (O76062 1-418): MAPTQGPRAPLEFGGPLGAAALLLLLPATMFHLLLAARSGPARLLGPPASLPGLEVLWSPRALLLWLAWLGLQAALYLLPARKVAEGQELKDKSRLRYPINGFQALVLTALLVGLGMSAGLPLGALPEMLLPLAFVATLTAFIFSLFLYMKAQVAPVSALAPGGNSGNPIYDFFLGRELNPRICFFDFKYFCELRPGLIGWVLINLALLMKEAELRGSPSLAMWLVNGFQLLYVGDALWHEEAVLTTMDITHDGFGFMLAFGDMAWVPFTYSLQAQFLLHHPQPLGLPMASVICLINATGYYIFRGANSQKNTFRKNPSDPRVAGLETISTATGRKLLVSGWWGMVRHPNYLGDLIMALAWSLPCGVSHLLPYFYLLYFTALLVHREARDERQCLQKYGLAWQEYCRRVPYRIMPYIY
Outline: as §1

[3] = target: T3, NSUN2_C271 (Homo sapiens, UniProt Q08J23); conditions: 22Rv1 cells, relative to DMSO; for % engagement NSUN2_C271: 20 μM probe, 1 h; for % engagement NSUN2_271: 5 μM probe, 1 h (FIG. 5B)
T3 construct: endogenous in cells; host or cells: 22Rv1
T3 sequence (Q08J23 whole entry): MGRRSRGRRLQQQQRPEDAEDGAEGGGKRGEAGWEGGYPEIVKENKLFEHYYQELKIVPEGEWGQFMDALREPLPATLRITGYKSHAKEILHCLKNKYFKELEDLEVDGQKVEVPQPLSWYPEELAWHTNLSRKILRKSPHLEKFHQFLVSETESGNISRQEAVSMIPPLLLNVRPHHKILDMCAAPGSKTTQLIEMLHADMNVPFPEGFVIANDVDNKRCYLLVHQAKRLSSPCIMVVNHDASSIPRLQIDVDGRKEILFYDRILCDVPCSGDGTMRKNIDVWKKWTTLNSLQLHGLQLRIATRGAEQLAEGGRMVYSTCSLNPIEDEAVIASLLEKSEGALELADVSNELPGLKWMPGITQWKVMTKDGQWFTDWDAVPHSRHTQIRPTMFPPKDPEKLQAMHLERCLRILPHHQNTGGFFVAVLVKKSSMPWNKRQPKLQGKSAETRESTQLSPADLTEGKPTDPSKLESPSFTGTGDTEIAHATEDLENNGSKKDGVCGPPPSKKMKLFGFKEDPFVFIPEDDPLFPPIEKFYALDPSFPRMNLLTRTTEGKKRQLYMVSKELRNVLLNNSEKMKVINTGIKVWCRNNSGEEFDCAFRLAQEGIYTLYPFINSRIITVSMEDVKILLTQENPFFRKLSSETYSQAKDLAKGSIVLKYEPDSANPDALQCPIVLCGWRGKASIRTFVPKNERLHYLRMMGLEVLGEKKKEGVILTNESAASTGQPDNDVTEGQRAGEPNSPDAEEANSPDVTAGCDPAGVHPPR
Outline: as §1

[4] = target: T4, SYNE2_C2994 (Homo sapiens, UniProt Q8WXH0); conditions: 22Rv1 cells, 20 μM probe, 1 h, relative to DMSO
T4 construct: endogenous in cells; host or cells: 22Rv1
Outline: as §1

Row | % engagement HMOX2_C282 [1] | % engagement TM7SF2_C184 [2] | % engagement NSUN2_C271 [3] | % engagement SYNE2_C2994 [4] | % engagement HMOX2_282 [1] | % engagement NSUN2_271 [3] | SMILES
1 | 97.75% | 100% | −11% | 37.5% |  |  | C=CC(=O)N1C[C@H](c2ccc(Br)cc2)[C@H]1C(=O)Nc1cccc2cccnc12 [MY-3B, (2S,3S)-1-acryloyl-3-(4-bromophenyl)-N-(quinolin-8-yl)azetidine-2-carboxamide]
2 | 96.25% | 64% | 88.75% | 75.75% | 94.00% | 94.50% | C=CC(=O)N1C[C@H](c2ccc(Br)cc2)[C@@H]1C(=O)Nc1cccc2cccnc12 [MY-1B, (2R,3S)-1-acryloyl-3-(4-bromophenyl)-N-(quinolin-8-yl)azetidine-2-carboxamide]
3 |  |  |  |  | 92.13% | −13.13% | CC#CC(=O)N1C[C@H](c2ccc(Br)cc2)[C@@H]1C(=O)Nc1cccc2cccnc12 [MY-45B, (2R,3S)-3-(4-bromophenyl)-1-(but-2-ynoyl)-N-(quinolin-8-yl)azetidine-2-carboxamide]
4 | 96.25% | 66.5% | −8.25% | 11.25% |  |  | C=CC(=O)N1C[C@H](c2ccc(Br)cc2)[C@H]1C(=O)Nc1cccc2cccnc12 [MY-3A, (2S,3S)-1-acryloyl-3-(4-bromophenyl)-N-(quinolin-8-yl)azetidine-2-carboxamide]
5 | 93.5% | 86.5% | 42.25% | 29.5% |  |  | C=CC(=O)N1C[C@@H](c2ccc(Br)cc2)[C@H]1C(=O)Nc1cccc2cccnc12 [MY-1A, (2S,3R)-1-acryloyl-3-(4-bromophenyl)-N-(quinolin-8-yl)azetidine-2-carboxamide]
